Test results taken from patent publication US20090028920A1, “UROLOGICAL DEVICES INCORPORATING COLLAGEN INHIBITORS” (Wake Forest University Health Sciences, priority 2006, published 2009).

Key:
[1] = rat, in vivo
Method: HF Analysis in Local Tissues and Serum (in Rat): The tissue specimens were morcellated, incubated for 24 hours in 40 mL of PBS, centrifuged, and a sample was taken for HF concentration analysis via spectrophotometry. Blood was also drawn (1 mL) from the heart post-mortem, added to 5 mL of PBS, centrifuged, and the serum analyzed for HF concentration via spectrophotometry.

[2] = Drug release study of coated stents in PBS (UV spectroscopy at 243 nm); assay type: physicochemical; conditions: approx. 3 cm coated silicone stents, room temperature, 24-hour intervals
Method: Drug release studies were then performed to determine the amount of halofuginone released by the coated stents, and the timing of drug release. Stents approximately 3 cm in length were coated with halofuginone using our proprietary technique. These stents were then placed in PBS solution at room temperature for 24-hour intervals. After each 24-hour interval, the stents were placed in a new PBS solution, and the previous solution was analyzed for halofuginone concentration using UV spectroscopy (absorption at 243 nm). This process was continued daily until the amount of halofuginone in the PBS dropped to immeasurable levels.

ureter and urethra = conditions: orally administered and locally injected; cited from earlier work
[3] = oral doses of up to 3.5 mg/day; cited from earlier work

O=C(CC1NCCCC1O)Cn1cnc2cc(Br)c(Cl)cc2c1=O (centres unmarked) [halofuginone, 7-bromo-6-chloro-3-[3-(3-hydroxy-2-piperidinyl)-2-oxopropyl]-4(3H)]
difference between HF levels in serum vs penile tissue [1]: almost a ten-fold difference | duration of sustained release of halofuginone from the stents [2]: approximately 4 days | release profile [2]: large burst release the first 24 hours | collagen deposition and stricture formation (ureter and urethra): prevent collagen deposition and stricture formation | tolerability [3]: minimal ill effects
